The first experiment concerns the target phosphorylated active hERK2 enzyme (Homo sapiens (Human), UniProt P28482). Description: Active Human ERK2 (hERK2) Activity Assay (IMAP-FP). The following applies: Table 5, 0.5 nM hERK2, 30 μM ATP, 10 point titration, read-out: AERK2 IC50. It counts as biochemical. The gist of the method:
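IMAP detection beads in buffer with 24 mM NaCl stopped the reaction, and fluorescence polarization was read after 60 min binding.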
Sequence of phosphorylated active hERK2 enzyme (P28482 whole entry): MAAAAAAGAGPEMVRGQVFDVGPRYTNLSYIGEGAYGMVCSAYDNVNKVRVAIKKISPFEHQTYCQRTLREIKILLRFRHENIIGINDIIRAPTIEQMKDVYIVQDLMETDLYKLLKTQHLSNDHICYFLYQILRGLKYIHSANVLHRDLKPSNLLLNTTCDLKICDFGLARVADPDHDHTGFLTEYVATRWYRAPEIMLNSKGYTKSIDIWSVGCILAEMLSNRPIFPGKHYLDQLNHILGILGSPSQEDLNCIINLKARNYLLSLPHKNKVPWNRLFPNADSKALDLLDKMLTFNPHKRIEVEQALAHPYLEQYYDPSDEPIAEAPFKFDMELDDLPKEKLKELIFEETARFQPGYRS
The term IC50 denotes the concentration at which inhibition is half-maximal. Consider `C[C@@H](NC(=O)Nc1cc2[nH]nc(N3CCOCC3)c2cn1)c1ccccc1` [Example 32, 1-(3-morpholin-4-yl-1H-pyrazolo[4,3-c]pyridin-6-yl)-3-[(1R)-1-phenylethyl]urea], for which the IC50 was found to be 0.37 nM. For `CCNc1n[nH]c2cc(NC(=O)N[C@H](C)c3ccccc3)ncc12` [Example 2, (R)-1-(3-(Ethylamino)-1H-pyrazolo[4,3-c]pyridin-6-yl)-3-(1-phenylethyl)urea], the IC50 worked out at 1.13 nM.

Still in this experiment, the particulars now being: Table 6, 0.5 nM hERK2, 30 μM ATP, 10 point titration, read-out: AERK2 IC50.
For the compound `CC(Nc1n[nH]c2cc(NC(=O)N[C@H](C)c3ccccc3)ncc12)C(F)(F)F` (stereo partly drawn) [Example 419, 1-[(1R)-1-phenylethyl]-3-{3-[(2,2,2-trifluoro-1-methylethyl)amino]-1H-pyrazolo[4,3-c]pyridin-6-yl}urea], the IC50 came to 2.2 nM. Consider `CCNc1n[nH]c2cc(NC(=O)NC(C)c3cccnc3)ncc12` (centres unmarked) [Example 283, 1-[3-(ethylamino)-1H-pyrazolo[4,3-c]pyridin-6-yl]-3-(1-pyridin-3-ylethyl)urea], for which the IC50 stood at 44.4 nM. Consider `CCNc1n[nH]c2cc(NC(=O)N[C@H](C)c3cccc(Cl)c3)ncc12` [Example 246, 1-[(1R)-1-(3-chlorophenyl)ethyl]-3-[3-(ethylamino)-1H-pyrazolo[4,3-c]pyridin-6-yl]urea], for which the IC50 worked out at 2.4 nM. As to `COC[C@@H](NC(=O)Nc1cc2[nH]nc(N)c2c(C)n1)c1ccccc1` [Example 335, 1-(3-amino-4-methyl-1H-pyrazolo[4,3-c]-pyridin-6-yl)-3-[(1S)-2-methoxy-1-phenylethyl]urea], the half-inhibitory concentration (IC50) was determined as 3 nM. Regarding `C[C@@H](NC(=O)Nc1cc2[nH]nc(N3CC[C@@H]3C)c2cn1)c1ccccc1` [Example 90, 1-{3-[(2S)-2-methylazetidin-1-yl]-1H-pyrazolo[4,3-c]-pyridin-6-yl}-3-[(1R)-1-phenylethyl]-urea], the IC50 was found to be 14.9 nM. As to `CCNc1n[nH]c2cc(NC(=O)N[C@@H](c3ccccc3)C3(O)CCCC3)ncc12` [Example 236, 1-[3-(ethylamino)-1H-pyrazolo[4,3-c]pyridin-6-yl]-3-[(S)-(1-hydroxy-cyclopentyl)-(phenyl)methyl]-urea], the half-maximal inhibitory concentration (IC50) came to 0.7 nM. For `CNc1n[nH]c2cc(NC(=O)N[C@@H](c3ccccc3)[C@@H]3CCCO3)ncc12` [Example 144, 1-(3-(methylamino)-1H-pyrazolo[4,3-c]pyridin-6-yl)-3-((S)-phenyl((S)-tetrahydrofuran-2-yl)methyl)urea], the concentration for half-maximal inhibition (IC50) turned out to be 2 nM.

`C[C@@H](NC(=O)Nc1cc2[nH]nc(N)c2cn1)c1ccc(F)c(Cl)c1` [Example 271, 1-(3-amino-1H-pyrazolo[4,3-c]pyridin-6-yl)-3-[(1R)-1-(3-chloro-4-fluorophenyl)-ethyl]urea]: the IC50 came out at 17.3 nM. As for `C[C@@H](NC(=O)Nc1cc2[nH]nc(N3CC(CO)C3)c2cn1)c1ccccc1` [Example 83, 1-{3-[3-(hydroxyl-methyl)azetidin-1-yl]-1H-pyrazolo[4,3-c]-pyridin-6-yl}-3-[(1R)-1-phenylethyl]-urea], the IC50 worked out at 2.7 nM. On the same count and under the same terms, the value for `CC12CCC(O1)C1CN(c3n[nH]c4cc(NC(=O)N[C@@H](c5ccc(F)cc5)C(C)(C)O)ncc34)CC12` (stereo partly drawn) [Example 377, 1-[(1S)-1-(4-fluorophenyl)-2-hydroxy-2-methyl-propyl]-3-[3-(4-methyloctahydro-2H-4,7-epoxyisoindo1-2-yl)-1H-pyrazolo[4,3-c]-pyridin-6-yl]urea] was 2.3 nM; that for `COC(=O)Nc1n[nH]c2cc(NC(=O)N[C@H](C)c3ccccc3)ncc12` [Example 220, (R)-methyl (6-(3-(1-phenylethyl)ureido)-1H-pyrazolo[4,3-c]pyridin-3-yl)carbamate] was 354 nM; that for `C[C@H](Nc1n[nH]c2cc(NC(=O)N[C@H](C)c3ccccc3)ncc12)c1ccccn1` [Example 86, 1-[(1R)-1-phenylethyl]-3-(3-{[(1S)-1-pyridin-2-ylethyl]amino}-1H-pyrazolo[4,3-c]-pyridin-6-yl)urea] was 4.7 nM.

In the case of `CNc1n[nH]c2cc(NC(=O)N[C@H](c3ccccc3)[C@@H]3CCCO3)ncc12` [Example 146, 1-(3-(methylamino)-1H-pyrazolo[4,3-c]pyridin-6-yl)-3-((R)-phenyl((S)-tetrahydrofuran-2-yl)methyl)urea], the IC50 stood at 115 nM. As for `COC(=O)Nc1n[nH]c2cc(NC(=O)N[C@H](C)c3ccc(Cl)c(O)c3)ncc12` [Example 307, methyl [6-({[(1R)-1-(4-chloro-3-hydroxyphenyl)-ethyl]carbamoyl}-amino)-1H-pyrazolo[4,3-c]-pyridin-3-yl]-carbamate], the half-maximal inhibitory concentration (IC50) amounted to 1.7 nM. `C[C@@H](NC(=O)Nc1cc2[nH]nc(Nc3ccc(F)cc3)c2cn1)c1ccccc1` [Example 116, 1-{3-[(4-fluorophenyl)-amino]-1H-pyrazolo[4,3-c]pyridin-6-yl}-3-[(1R)-1-phenylethyl]urea]: the IC50 is 94.2 nM. For the compound `C[C@@H](NC(=O)Nc1cc2[nH]nc(NC(=O)CC3CCCC3)c2cn1)c1ccccc1` [Example 210, 2-cyclopentyl-N-[6-({[(1R)-1-phenylethyl]-carbamoyl}amino)-1H-pyrazolo[4,3-c]pyridin-3-yl]-acetamide], the IC50 was 2.8 nM.

In the case of `COCCNc1n[nH]c2cc(NC(=O)N[C@H](C)c3ccc(F)cc3)ncc12` [Example 374, 1-[(1R)-1-(4-fluorophenyl)ethyl]-3-{3-[(2-methoxy-ethyl)amino]-1H-pyrazolo[4,3-c]-pyridin-6-yl}urea], the IC50 was 2.8 nM. `C[C@@H](NC(=O)Nc1cc2[nH]nc(NC3CCCCC3)c2cn1)c1ccccc1` [Example 187, 1-[3-(cyclohexyl-amino)-1H-pyrazolo[4,3-c]pyridin-6-yl]-3-[(1R)-1-phenylethyl]urea]: the half-maximal inhibitory concentration (IC50) was found to be 6.8 nM. In the case of `COC(=O)Nc1n[nH]c2cc(NC(=O)N[C@H](C)c3ccccc3F)ncc12` [Example 305, methyl [6-({[(1R)-1-(2-fluorophenyl)-ethyl]carbamoyl}-amino)-1H-pyrazolo[4,3-c]-pyridin-3-yl]-carbamate], the half-maximal inhibitory concentration (IC50) stood at 7.3 nM. On the same count and under the same terms, the value for `CC(C)CC(=O)Nc1n[nH]c2cc(NC(=O)N[C@H](C)c3ccccc3)ncc12` [Example 209, 3-methyl-N-[6-({[(1R)-1-phenylethyl]-carbamoyl}amino)-1H-pyrazolo[4,3-c]pyridin-3-yl]-butanamide] was 1.6 nM; that for `COc1ccccc1Nc1n[nH]c2cc(NC(=O)N[C@H](C)c3ccccc3)ncc12` [Example 121, 1-{3-[(2-methoxyphenyl)amino]-1H-pyrazolo[4,3-c]pyridin-6-yl}-3-[(1R)-1-phenylethyl]urea] was 24.5 nM; that for `COC[C@@H](NC(=O)Nc1cc2[nH]nc(NC(C)C(F)(F)F)c2cn1)c1ccccc1` (stereo partly drawn) [Example 417, 1-[(1S)-2-methoxy-1-phenylethyl]-3-{3-[(2,2,2-trifluoro-1-methylethyl)-amino]-1H-pyrazolo[4,3-c]-pyridin-6-yl}urea] was 0.6 nM. `C[C@@H](NC(=O)Nc1cc2[nH]nc(NCC3CCNCC3)c2cn1)c1ccccc1` [Example 165, 1-[(1R)-1-phenylethyl]-3-{3-[(piperidin-4-ylmethyl)amino]-1H-pyrazolo[4,3-c]pyridin-6-yl}urea]: the half-inhibitory concentration (IC50) was 50.2 nM.

As for `COC(=O)Nc1n[nH]c2cc(NC(=O)N[C@@H](c3ccc(F)cc3)C(C)(C)O)ncc12` [Example 390, methyl [6-({[(1S)-1-(4-fluorophenyl)-2-hydroxy-2-methylpropyl]-carbamoyl}amino)-1H-pyrazolo[4,3-c]pyridin-3-yl]-carbamate], the IC50 came to 0.5 nM.

The values above are taken from patent US9233979B2, “Compounds that are ERK inhibitors” (Merck Sharp & Dohme Corp., priority 2012, dated 2016).
